Data on 25 molecules can be found in patent publication US9708308B2, “Factor IXa inhibitors” (Merck Sharp & Dohme Corp., priority 2012, dated 2017).

By IC50 is commonly meant the midpoint of a concentration-inhibition curve.

Chain of Factor IXa (P00740 227-461 limits assumed): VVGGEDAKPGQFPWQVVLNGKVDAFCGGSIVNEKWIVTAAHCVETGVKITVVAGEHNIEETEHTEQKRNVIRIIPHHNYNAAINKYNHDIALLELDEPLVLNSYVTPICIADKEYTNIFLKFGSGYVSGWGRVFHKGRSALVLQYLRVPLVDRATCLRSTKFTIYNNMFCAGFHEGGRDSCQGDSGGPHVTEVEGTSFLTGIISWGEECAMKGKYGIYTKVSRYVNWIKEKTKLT
Chain of Factor IXa (P00740 47-191 partner limits assumed): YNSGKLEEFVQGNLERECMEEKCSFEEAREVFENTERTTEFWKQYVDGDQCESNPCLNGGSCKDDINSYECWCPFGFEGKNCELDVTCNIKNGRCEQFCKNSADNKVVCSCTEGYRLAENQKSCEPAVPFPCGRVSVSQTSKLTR

The target of the assay is Factor IXa (Homo sapiens, UniProt P00740). The assay can be described thus: Determination of inhibitory activity against Factor IXa (cleavage of fluorescent peptide substrate). It counts as biochemical. The conditions noted are these: cleavage of fluorescent peptide CH3SO2-D-CHG-Gly-Arg-AFC, release of AFC; read-out: FIXa IC50. An excerpt:
• (R)—N-(3-aminobenzo[d]isoxazol-6-yl)-2-hydroxy-2-((R)-4-(1-(6-methoxypyridazin-4-yl)-1H-pyrazol-3-yl)-6,6-dimethyl-3-oxomorpholin-2-yl)acetamide. Determination of Inhibitory Activity Against Factor IXa
Formation of a clot to stem bleeding at a site of blood vessel injury involves the coordinated activity of a group of plasma proteins that initiate and propagate fibrin formation and subsequently protect fibrin from premature degradation. Factor IX is a key component of the plasma system that forms a fibrin clot at a site of vascular injury. The activity of Factor IXa is measured by monitoring the cleavage of the fluorescent peptide, CH3SO2-D-CHG-Gly-Arg-AFC.AcOH (“CHG” is cyclohexyl-glycine and “AFC” is trifluoro aminomethyl coumarin). Factor IXa cleaves the amide bond between Arg and AFC, thereby releasing the AFC fluorophore. The free AFC can be detected with a fluorescence detector at an excitation wavelength of 405 nm and emission wavelength of 510 nm.
Turning to `COc1cc(-c2ccc(N3CCO[C@H]([C@@](C)(O)C(=O)Nc4ccc5c(N)noc5c4)C3=O)o2)ccn1` [Example 63, (R)—N-(3-aminobenzo[d]isoxazol-6-yl)-2-hydroxy-2-((R)-4-(5-(2-methoxypyridin-4-yl)furan-2-yl)-3-oxomorpholin-2-yl)propanamide], the IC50 turned out to be 131 nM. For `COc1nccc(-c2ccc(N3CCO[C@H]([C@@](C)(O)C(=O)Nc4ccc5c(N)noc5c4)C3=O)o2)n1` [Example 64, (R)—N-(3-aminobenzo[d]isoxazol-6-yl)-2-hydroxy-2-((R)-4-(5-(2-methoxypyrimidin-4-yl)furan-2-yl)-3-oxomorpholin-2-yl)propanamide] the value was 124 nM; for `CC(C)(O)c1cccc(N2CCO[C@H]([C@@](C)(O)C(=O)Nc3ccc4c(N)noc4c3)C2=O)n1` [Example 65, (R)—N-(3-aminobenzo[d]isoxazol-6-yl)-2-hydroxy-2-((R)-4-(6-(2-hydroxypropan-2-yl)pyridin-2-yl)-3-oxomorpholin-2-yl)propanamide], 468 nM; for `C[C@](O)(C(=O)Nc1ccc2c(N)noc2c1)[C@H]1OCCN(c2cccc(-c3ccnnc3)n2)C1=O` [Example 67, (R)—N-(3-aminobenzo[d]isoxazol-6-yl)-2-hydroxy-2-((R)-3-oxo-4-(6-(pyridazin-4-yl)pyridin-2-yl)morpholin-2-yl)propanamide], 66.9 nM. For `C[C@](O)(C(=O)Nc1ccc2c(N)noc2c1)[C@H]1OCCN(c2ccc3cc(C(F)(F)F)ccc3n2)C1=O` [Example 68, (R)—N-(3-aminobenzo[d]isoxazol-6-yl)-2-hydroxy-2-((R)-3-oxo-4-(6-(trifluoromethyl)quinolin-2-yl)morpholin-2-yl)propanamide] the value was 574 nM; for `C[C@](O)(C(=O)Nc1ccc2c(N)noc2c1)[C@H]1OCCN(c2ccc3ccncc3n2)C1=O` [Example 69, (R)-2-((R)-4-(1,7-naphthyridin-2-yl)-3-oxomorpholin-2-yl)-N-(3-aminobenzo[d]isoxazol-6-yl)-2-hydroxypropanamide], 384 nM; for `Cc1nn(C)c2nc(N3CCO[C@H]([C@@](C)(O)C(=O)Nc4ccc5c(N)noc5c4)C3=O)ccc12` [Example 70, (R)—N-(3-aminobenzo[d]isoxazol-6-yl)-2-((R)-4-(1,3-dimethyl-1H-pyrazolo[3,4-b]pyridin-6-yl)-3-oxomorpholin-2-yl)-2-hydroxypropanamide], 195 nM. For `C[C@](O)(C(=O)Nc1ccc2c(N)noc2c1)[C@H]1OCCN(c2cc3n(n2)CCC3)C1=O` [Example 71, (R)—N-(3-aminobenzo[d]isoxazol-6-yl)-2-((R)-4-(5,6-dihydro-4H-pyrrolo[1,2-b]pyrazol-2-yl)-3-oxomorpholin-2-yl)-2-hydroxypropanamide] the value was 368 nM; for `C[C@]1([C@@H](O)C(=O)Nc2ccc3c(N)noc3c2)OCCN(c2cccc(C(F)(F)F)n2)C1=O` [Example 72, (R)—N-(3-Aminobenzo[d]isoxazol-6-yl)-2-hydroxy-2-((R)-2-methyl-3-oxo-4-(6-(trifluoromethyl)pyridin-2-yl)morpholin-2-yl)acetamide], 12.9 nM; for `C[C@]1([C@@H](O)C(=O)Nc2ccc3c(N)noc3c2)OCCN(c2ccn(-c3ccnc(C#N)c3)n2)C1=O` [Example 73, (R)—N-(3-Aminobenzo[d]isoxazol-6-yl)-2-((R)-4-(1-(2-cyanopyridin-4-yl)-1H-pyrazol-3-yl)-2-methyl-3-oxomorpholin-2-yl)-2-hydroxyacetamide], 66.1 nM. With `CC[C@]1([C@@H](O)C(=O)Nc2ccc3c(N)noc3c2)OCCN(c2cccc(C(F)(F)F)n2)C1=O` [Example 74, (R)—N-(3-Aminobenzo[d]isoxazol-6-yl)-2-((R)-2-ethyl-3-oxo-4-(6-(trifluoromethyl)pyridin-2-yl)morpholin-2-yl)-2-hydroxyacetamide], the IC50 came to 408 nM. For `C[C@]1([C@@H](O)C(=O)Nc2ccc3c(N)noc3c2)OCCN(c2ccn(-c3ccc(=O)n(C(F)F)c3)n2)C1=O` [Example 76, (R)—N-(3-Aminobenzo[d]isoxazol-6-yl)-2-((R)-4-(1-(1-(difluoromethyl)-6-oxo-1,6-dihydropyridin-3-yl)-1H-pyrazol-3-yl)-2-methyl-3-oxomorpholin-2-yl)-2-hydroxyacetamide] the value was 11.1 nM.

For the molecule `Cc1cc(N2CCO[C@](C)([C@@H](O)C(=O)Nc3ccc4c(N)noc4c3)C2=O)nn1-c1ccc(=O)n(C(F)F)c1` [Example 77, (R)—N-(3-Aminobenzo[d]isoxazol-6-yl)-2-((R)-4-(1-(1-(difluoromethyl)-6-oxo-1,6-dihydropyridin-3-yl)-5-methyl-1H-pyrazol-3-yl)-2-methyl-3-oxomorpholin-2-yl)-2-hydroxyacetamide], the IC50 was 26.5 nM. For `C[C@]1([C@@H](O)C(=O)Nc2ccc3c(N)noc3c2)OCCN(c2nn(-c3ccc(=O)n(C(F)F)c3)cc2F)C1=O` [Example 78, (R)—N-(3-Aminobenzo[d]isoxazol-6-yl)-2-((R)-4-(1-(1-(difluoromethyl)-6-oxo-1,6-dihydropyridin-3-yl)-4-fluoro-1H-pyrazol-3-yl)-2-methyl-3-oxomorpholin-2-yl)-2-hydroxyacetamide] the value was 25.6 nM. As to `C[C@]1([C@@H](O)C(=O)Nc2ccc3c(N)noc3c2)OCCN(c2ccn(-c3ccc(F)cc3)n2)C1=O` [Example 79, (R)—N-(3-aminobenzo[d]isoxazol-6-yl)-2-((R)-4-(1-(4-fluorophenyl)-1H-pyrazol-3-yl)-2-methyl-3-oxomorpholin-2-yl)-2-hydroxyacetamide], the IC50 was found to be 170 nM. For `C[C@]1([C@@H](O)C(=O)Nc2ccc3c(N)noc3c2)OCCN(c2ccn(-c3ccc(C#N)cc3)n2)C1=O` [Example 80, (R)—N-(3-aminobenzo[d]isoxazol-6-yl)-2-((R)-4-(1-(4-cyanophenyl)-1H-pyrazol-3-yl)-2-methyl-3-oxomorpholin-2-yl)-2-hydroxyacetamide] the value was 25.3 nM. Consider `COC(=O)c1ccc(-n2ccc(N3CCO[C@](C)([C@@H](O)C(=O)Nc4ccc5c(N)noc5c4)C3=O)n2)cc1` [Example 81, methyl 4-(3-((R)-2-((R)-2-((3-aminobenzo[d]isoxazol-6-yl)amino)-1-hydroxy-2-oxoethyl)-2-methyl-3-oxomorpholino)-1H-pyrazol-1-yl)benzoate], for which the 50% inhibitory concentration (IC50) amounted to 418 nM.

As to `C[C@]1([C@@H](O)C(=O)Nc2ccc3c(N)noc3c2)OCCN(c2ccn(-c3ccc(C(=O)O)cc3)n2)C1=O` [Example 82, 4-(3-((R)-2-((R)-2-((3-aminobenzo[d]isoxazol-6-yl)amino)-1-hydroxy-2-oxoethyl)-2-methyl-3-oxomorpholino)-1H-pyrazol-1-yl)benzoic acid], the half-inhibitory concentration (IC50) came out at 32.8 nM.

As for `C[C@]1([C@@H](O)C(=O)Nc2ccc3c(N)noc3c2)OCCN(c2ccn(-c3ccc(Cl)cc3)n2)C1=O` [Example 83, (R)—N-(3-aminobenzo[d]isoxazol-6-yl)-2-((R)-4-(1-(4-chlorophenyl)-1H-pyrazol-3-yl)-2-methyl-3-oxomorpholin-2-yl)-2-hydroxyacetamide], the IC50 was determined as 352 nM. For `C[C@]1([C@@H](O)C(=O)Nc2ccc3c(N)noc3c2)OCCN(c2ccn(-c3ccc(S(C)(=O)=O)cc3)n2)C1=O` [Example 84, (R)—N-(3-aminobenzo[d]isoxazol-6-yl)-2-hydroxy-2-((R)-2-methyl-4-(1-(4-(methylsulfonyl)phenyl)-1H-pyrazol-3-yl)-3-oxomorpholin-2-yl)acetamide] the value was 13.2 nM; for `C[C@]1([C@@H](O)C(=O)Nc2ccc3c(N)noc3c2)OCCN(c2ccn(-c3cccnc3)n2)C1=O` [Example 85, (R)—N-(3-aminobenzo[d]isoxazol-6-yl)-2-hydroxy-2-((R)-2-methyl-3-oxo-4-(1-(pyridin-3-yl)-1H-pyrazol-3-yl)morpholin-2-yl)acetamide], 279 nM.

In the case of `C[C@]1([C@@H](O)C(=O)Nc2ccc3c(N)noc3c2)OCCN(c2ccn(-c3ccc(C(F)(F)F)nc3)n2)C1=O` [Example 86, (R)—N-(3-aminobenzo[d]isoxazol-6-yl)-2-hydroxy-2-((R)-2-methyl-3-oxo-4-(1-(6-(trifluoromethyl)pyridin-3-yl)-1H-pyrazol-3-yl)morpholin-2-yl)acetamide], the half-maximal inhibitory concentration (IC50) worked out at 414 nM. For `C[C@]1([C@@H](O)C(=O)Nc2ccc3c(N)noc3c2)OCCN(c2ccn(-c3cncc(C(F)(F)F)c3)n2)C1=O` [Example 87, (R)—N-(3-aminobenzo[d]isoxazol-6-yl)-2-hydroxy-2-((R)-2-methyl-3-oxo-4-(1-(5-(trifluoromethyl)pyridin-3-yl)-1H-pyrazol-3-yl)morpholin-2-yl)acetamide] the value was 228 nM; for `C[C@]1([C@@H](O)C(=O)Nc2ccc3c(N)noc3c2)OCCN(c2ccn(-c3cncc(C#N)c3)n2)C1=O` [Example 88, (R)—N-(3-aminobenzo[d]isoxazol-6-yl)-2-((R)-4-(1-(5-cyanopyridin-3-yl)-1H-pyrazol-3-yl)-2-methyl-3-oxomorpholin-2-yl)-2-hydroxyacetamide], 950 nM. Take `C[C@]1([C@@H](O)C(=O)Nc2ccc3c(N)noc3c2)OCCN(c2ccn(-c3ccncc3)n2)C1=O` [Example 89, (R)—N-(3-aminobenzo[d]isoxazol-6-yl)-2-hydroxy-2-((R)-2-methyl-3-oxo-4-(1-(pyridin-4-yl)-1H-pyrazol-3-yl)morpholin-2-yl)acetamide]: the IC50 stood at 1060 nM.
